Measurements: US9695191B2, “Conformationally constrained, fully synthetic macrocyclic compounds” (POLYPHOR AG, priority 2009, dated 2017)
Where two headings read alike, the source gives them in different places.

Assays:
[1] = amide bond
[2] = both, CD-1, mouse, 10 μM
[3] = human, 10 μM
Procedure: Example compounds were dissolved in DMSO/H2O 90:10 to a final concentration of 10 mM for plasma stability determination and metabolic stability determination.
Human plasma (3-5 donors, Blutspendedienst SRK, Basel) and CD-1 mouse plasma (mixed gender pool>50 animals, Innovative Research, CA, USA) are both sodium citrate stabilized. The assay is performed in triplicates at 10 μM compound concentration and 37° C. Samples are taken at 0, 15, 60, and 240 minutes and stopped by precipitation with 2 volumes of acetonitrile. The supernatant is collected, evaporated and reconstituted in a 5% acetonitrile solution to be analyzed by HPLC/MS/MS. The resulting peak area counts are expressed in percent of the 0 value and used to determine the endpoint stability in % and the half life T½ in minutes. In order to monitor assay integrity the degradation of propantheline is assayed with every experimental set

[4] = Metabolic stability, human microsomes; format: in vitro ADME; conditions: % of the initial 0 minutes value at 60 min, 10 μM, 37° C.
Procedure: (§1) Microsomes from a human 50 donor mixed gender pool and 1:1 mixtures of microsomes from CD-1 mouse single-gender pools are purchased from Celsis (Belgium). The enzymatic reaction is performed in a buffer containing an NADPH regeneration system and microsomes with the following end concentrations: 100 mM potassium phosphate buffer (all from Sigma), 1 mg/mL glucose-6-phosphate, 1 mg/mL β-nicotinamide adenine dinucleotide phosphate (NADP), 0.65 mg/mL magnesium chloride, 0.8 units/mL of glucose-6-phosphate dehydrogenase (prediluted with 5 mM citrate buffer), 10 μM compound and 1 mg/ml microsomal protein. Compounds are incubated at 37° C. in duplicates and samples are taken after 0, 20 and 60 minutes. After acetonitrile precipitation (2 volumes) and HPLC/MS/MS analysis metabolic turnover is expressed in % of the initial 0 minutes value and half life T½ (min) is calculated. Verapamil for human and propranolol for mouse are used as reference and are assayed with every experimental set. • F. P. Guengerich, Analysis and Characterization of Enzymes; in: Principles and Methods of Toxicology; A. W. Hayes (Ed.) Raven Press: New York, 1989, 777-813. • R. Singh et al., In vitro metabolism of a potent HIV-protease inhibitor (141W94) using rat, monkey and human liver S9, Rapid Commun. Mass Spectrom. 1996, 10, 1019-1026. 5. Results

[5] = Metabolic stability, CD-1 mouse microsomes; format: in vitro ADME; conditions: % of the initial 0 minutes value at 60 min, 10 μM, 37° C.
Procedure: as §1

[6] = biological target: T1, 5-hydroxytryptamine 2B (5-HT2B) receptor (Homo sapiens, UniProt P41595); assay: Ca2+ assay (FLIPR), 5-hydroxytryptamine 2B (5-HT2B) receptor, agonist mode (percentage activation); format: cell-based
T1 construct: expressed in transfected cells; host or cells: Ca2+ optimized hematopoietic cell lines (rat)
T1 sequence (P41595 whole entry): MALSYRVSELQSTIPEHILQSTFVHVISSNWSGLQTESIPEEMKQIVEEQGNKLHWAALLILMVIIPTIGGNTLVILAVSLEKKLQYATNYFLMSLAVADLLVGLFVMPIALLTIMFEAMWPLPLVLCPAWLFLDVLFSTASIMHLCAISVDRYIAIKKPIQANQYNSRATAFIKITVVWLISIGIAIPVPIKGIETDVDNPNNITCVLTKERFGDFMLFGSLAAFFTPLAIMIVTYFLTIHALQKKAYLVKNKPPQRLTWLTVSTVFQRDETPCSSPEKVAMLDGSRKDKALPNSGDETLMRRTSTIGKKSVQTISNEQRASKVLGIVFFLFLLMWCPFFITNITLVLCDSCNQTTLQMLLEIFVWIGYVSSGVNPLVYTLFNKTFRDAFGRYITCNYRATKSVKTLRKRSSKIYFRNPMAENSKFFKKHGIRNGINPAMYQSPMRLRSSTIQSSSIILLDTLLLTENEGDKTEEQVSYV
Procedure: Dose dependent agonist and antagonist activities were determined. Percentage activation and percentage inhibition values were determined.
Percentage activation was determined upon initial addition of the sample compounds followed by 10 minutes incubation at 25° C. Following compound incubation, reference agonists were added at EC80 to determine percentage inhibition.
All handling of ligands were done to ensure proper control throughout the experiments.
HBSS was supplemented with 20 mM HEPES (4-(2-hydroxyethyl)-piperazin-1-ethansulfonic acid) and 2.5 mM Probenecid (Sigma P8761).
GPCR assays were performed using Ca^2+ optimized hematopoietic cell lines (rat) with cultures never exceeding 90% confluency. […] After seeding, the assay plates were incubated for forty-five (45) minutes at room temperature. After room temperature incubation, the assay plates were incubated at 37° C. 5% CO2 for 24 hours prior to assaying.
All GPCR assays were performed using Fluo-8 Ca^2+ dye. Ca^2+ dye was prepared at 1× dye concentration in GPCR assay buffer. […] The plates were incubated for 90 minutes at 30° C. 5% CO2 prior to FLIPR assay.
Compound plates were prepared to add 50 μL/well during the agonist assay mode. During the FLIPR assay, 50 μL/well from the compound plate was diluted 3-fold into the existing 100 μL/well from the dye loading step. Therefore all compounds were prepared as 3× the final concentration desired in the assay.
After completion of the first single addition assay run, assay plate was removed from the FLIPR Tetra and placed at 25° C. for seven (7) minutes before antagonist assay.
From the FLIPR data, with negative control correction enabled, the maximum statistic for each well was exported and percentage activation relative to Emax control was calculated.

CN1C(=O)c2cc(F)ccc2OC[C@@H]2CN(C(=O)OC(C)(C)C)CCN2C(=O)CC[C@H]1C(=O)OCc1ccccc1
ring closure, yield of all isomers ([1]; from CN(C(=O)c1cc(F)ccc1OC[C@@H]1CN(C(=O)OC(C)(C)C)CCN1)[C@@H](CCC(=O)O)C(=O)OCc1ccccc1, T3P, CH2Cl2, 0.57 mM, 25.0 °C, 22.0 h): 77%

CN1C(=O)c2cc(F)ccc2OC[C@@H]2C[C@H](NC(=O)OCC[Si](C)(C)C)CN2C(=O)CC[C@H]1C(=O)OCc1ccccc1
ring closure, yield of all isomers ([1]; from CN(C(=O)c1cc(F)ccc1OC[C@@H]1C[C@H](NC(=O)OCC[Si](C)(C)C)CN1)[C@@H](CCC(=O)O)C(=O)OCc1ccccc1, T3P, CH2Cl2, 10.0 mM, 25.0 °C, […]): 61%

CN1CC(=O)N2C[C@@H](NC(=O)OC(C)(C)C)C[C@H]2COc2ccc(F)cc2C(=O)N(C)[C@H](C(=O)OCc2ccccc2)CCC1=O
ring closure, yield of all isomers ([1]; from CNCC(=O)N1C[C@@H](NC(=O)OC(C)(C)C)C[C@H]1COc1ccc(F)cc1C(=O)N(C)[C@@H](CCC(=O)O)C(=O)OCc1ccccc1, FDPP, DMF, 8.44 mM, 25.0 °C, 22.0 h): 94%

CN1CC(=O)N2C[C@@H](NC(=O)OCC[Si](C)(C)C)C[C@H]2COc2cccc3c2C[C@@](NC(=O)OC(C)(C)C)(CC3)C(=O)N(C)C[C@H](NC(=O)OCc2ccccc2)C1=O
ring closure, yield of all isomers ([1]; from CN(CC(=O)O)C(=O)[C@H](CN(C)C(=O)[C@]1(NC(=O)OC(C)(C)C)CCc2cccc(OC[C@@H]3C[C@H](NC(=O)OCC[Si](C)(C)C)CN3)c2C1)NC(=O)OCc1ccccc1, T3P, CH2Cl2, 10.0 mM, 2.0 h): 44%

CN1CC(=O)N2C[C@H](NC(=O)OC(C)(C)C)C[C@H]2COc2ccc(F)cc2C(=O)N(C)[C@H](C(=O)OCc2ccccc2)CCC1=O
ring closure, yield of all isomers ([1]; from CNCC(=O)N1C[C@H](NC(=O)OC(C)(C)C)C[C@H]1COc1ccc(F)cc1C(=O)N(C)[C@@H](CCC(=O)O)C(=O)OCc1ccccc1, T3P, CH2Cl2, 10.5 mM, 25.0 °C, 22.0 h): 87%

CN1CC(=O)N2C[C@H](NC(=O)OC(C)(C)C)C[C@H]2COc2ccc(cc2)C(=O)N(C)[C@H](C(=O)OCc2ccccc2)CCC1=O
ring closure, yield of all isomers ([1]; from CNCC(=O)N1C[C@H](NC(=O)OC(C)(C)C)C[C@H]1COc1ccc(C(=O)N(C)[C@@H](CCC(=O)O)C(=O)OCc2ccccc2)cc1, T3P, CH2Cl2, 1.05 mM, 3.0 h): 54%

CN1CC(=O)N2C[C@H](NC(=O)OC(C)(C)C)C[C@H]2CSc2cccc(c2)C(=O)N(C)[C@H](C(=O)OCc2ccccc2)CCC1=O
ring closure, yield of all isomers ([1]; from CNCC(=O)N1C[C@H](NC(=O)OC(C)(C)C)C[C@H]1CSc1cccc(C(=O)N(C)[C@@H](CCC(=O)O)C(=O)OCc2ccccc2)c1, T3P, CH2Cl2, 10.0 mM, 25.0 °C, 3.0 h): 57%

CN1CCC[C@H](NC(=O)OCc2ccccc2)C(=O)N2C[C@@H](NC(=O)OCC[Si](C)(C)C)C[C@H]2COc2cccc(c2)C1=O
ring closure, yield of all isomers ([1]; from CN(CCC[C@H](NC(=O)OCc1ccccc1)C(=O)O)C(=O)c1cccc(OC[C@@H]2C[C@H](NC(=O)OCC[Si](C)(C)C)CN2)c1, T3P, i-Pr2NEt, CH2Cl2, 9.4 mM): 54%

CC(=O)N[C@H]1C[C@H]2COc3ccc(F)cc3C(=O)N(C)[C@H](C(=O)NCCc3c[nH]c4ccccc34)CCC(=O)N(C)CC(=O)N2C1 [Ex. 9, (2S,11S,19aS)-2-(acetylamino)-15-fluoro-N-[2-(1H-indol-3-yl)ethyl]-7,12-dimethyl-5,8,13-trioxo-2,3,6,7,8,9,10,11,12,13,19,19a-dodecahydro-1H,5H-pyrrolo[2,1-c][1,4,7,12] benzoxatriazacyclopentadecine-11-carboxamide]
Plasma Stability 240 min mouse [2]: 93%
Plasma Stability 240 min hum [3]: 99%
Metabolic Stability 60 min hum [4]: 20%
Metabolic Stability 60 min mouse [5]: 80%
5-HT2B receptor agonist activity [% activation at 12.5 μM] [6]: 48%

CN1CC(=O)N2C[C@@H](NC(=O)Cc3c[nH]c4ccccc34)C[C@H]2COc2ccc(F)cc2C(=O)N(C)[C@H](C(=O)NCCc2c[nH]c3ccccc23)CCC1=O [Ex. 12, (2S,11S,19aS)-15-fluoro-2-{[2-(1H-indol-3-yl)acetyl]amino}-N-[2-(1H-indol-3-yl)ethyl]-7,12-dimethyl-5,8,13-trioxo-2,3,6,7,8,9,10,11,12,13,19,19a-dodecahydro-1H,5H-pyrrolo [2,1-c][1,4,7,12]benzoxatriazacyclopentadecine-11-carboxamide]
Plasma Stability 240 min mouse [2]: 100%
Plasma Stability 240 min hum [3]: 99%
Metabolic Stability 60 min hum [4]: 7%
Metabolic Stability 60 min mouse [5]: 33%
5-HT2B receptor agonist activity [% activation at 12.5 μM] [6]: 36%

CN(C)CC(=O)N[C@H]1C[C@H]2COc3ccc(F)cc3C(=O)N(C)[C@H](C(=O)NCCc3c[nH]c4ccccc34)CCC(=O)N(C)CC(=O)N2C1 [Ex. 16, (2S,11S,19aS)-2-{[2-(dimethylamino)acetyl]amino}-15-fluoro-N-[2-(1H-indol-3-yl)ethyl]-7,12-dimethyl-5,8,13-trioxo-2,3,6,7,8,9,10,11,12,13,19,19a-dodecahydro-1H,5H-pyrrolo [2,1-c][1,4,7,12]benzoxatriazacyclopentadecine-11-carboxamide]
Plasma Stability 240 min mouse [2]: 97%
Plasma Stability 240 min hum [3]: 95%
Metabolic Stability 60 min hum [4]: 31%
Metabolic Stability 60 min mouse [5]: 79%
5-HT2B receptor agonist activity [% activation at 12.5 μM] [6]: 45%

CN1CC(=O)N2C[C@H](NC(=O)CN3CCCC3)C[C@H]2COc2ccc(cc2)C(=O)N(C)[C@H](C(=O)NCc2ccncc2)CCC1=O [Ex. 266, (4S,6R,15S)-11,16-dimethyl-9,12,17-trioxo-N-(4-pyridinylmethyl)-6-{[2-(1-pyrrolidinyl)acetyl]amino}-2-oxa-8,11,16-triazatricyclo[16.2.2.0^4,8]docosa-1(20),18,21-triene-15-carboxamide]
Plasma Stability 240 min mouse [2]: 74%
Plasma Stability 240 min hum [3]: 92%
Metabolic Stability 60 min hum [4]: 100%
Metabolic Stability 60 min mouse [5]: 98%

CN1CC(=O)N2C[C@H](NC(=O)CCC(=O)O)C[C@H]2COc2ccc(cc2)C(=O)N(C)[C@H](C(=O)NCc2ccncc2)CCC1=O [Ex. 267, 4-{[(4S,6R,15S)-11,16-dimethyl-9,12,17-trioxo-15-{[(4-pyridinylmethyl)amino]carbonyl}-2-oxa-8,11,16-triazatricyclo [16.2.2.0^4,8]docosa-1(20),18,21-trien-6-yl]amino}-4-oxobutanoic acid]
Plasma Stability 240 min mouse [2]: 79%
Plasma Stability 240 min hum [3]: 75%
Metabolic Stability 60 min hum [4]: 99%
Metabolic Stability 60 min mouse [5]: 100%

CN1C[C@H](NC(=O)OCc2ccccc2)C(=O)N(C)CC(=O)N2C[C@@H](NC(=O)OC(C)(C)C)C[C@H]2COc2cncc(c2)C1=O [Ex. 272, benzyl N-[(4S,6S,13S)-6-[(tert-butoxycarbonyl)amino]-11,15-dimethyl-9,12,16-trioxo-2-oxa-8,11,15,19-tetraazatricyclo [15.3.1.0^4,8]henicosa-1(21),17,19-trien-13-yl]carbamate]
Plasma Stability 240 min mouse [2]: 92%
Plasma Stability 240 min hum [3]: 95%
ring closure, yield of all isomers ([1]; from CNCC(=O)N1C[C@@H](NC(=O)OC(C)(C)C)C[C@H]1COc1cncc(C(=O)N(C)C[C@H](NC(=O)OCc2ccccc2)C(=O)O)c1, T3P, CH2Cl2, 9.75 mM): 38%
